Test results published in patent US10435399B2, “HDAC6 inhibitory heterocyclic compound” (TAKEDA PHARMACEUTICAL COMPANY LIMITED, priority 2017, dated 2019).

Each molecule was assayed against T1, HDAC6 enzyme (Homo sapiens, UniProt Q9UBN7) (assay: HDAC6 enzyme inhibitory activity (HDAC-Glo I/II Assay kit)). Settings: 10 μM; wells without enzyme = 100% inhibition; read-out: HDAC6 inhibitory rate (%) (10 μM).
T1 construct: transducing full length HDAC6 gene into Sf-9 insect cells; GST; purchased SignalChem; host or cells: Sf-9 insect cells
T1 sequence (Q9UBN7 1-1215): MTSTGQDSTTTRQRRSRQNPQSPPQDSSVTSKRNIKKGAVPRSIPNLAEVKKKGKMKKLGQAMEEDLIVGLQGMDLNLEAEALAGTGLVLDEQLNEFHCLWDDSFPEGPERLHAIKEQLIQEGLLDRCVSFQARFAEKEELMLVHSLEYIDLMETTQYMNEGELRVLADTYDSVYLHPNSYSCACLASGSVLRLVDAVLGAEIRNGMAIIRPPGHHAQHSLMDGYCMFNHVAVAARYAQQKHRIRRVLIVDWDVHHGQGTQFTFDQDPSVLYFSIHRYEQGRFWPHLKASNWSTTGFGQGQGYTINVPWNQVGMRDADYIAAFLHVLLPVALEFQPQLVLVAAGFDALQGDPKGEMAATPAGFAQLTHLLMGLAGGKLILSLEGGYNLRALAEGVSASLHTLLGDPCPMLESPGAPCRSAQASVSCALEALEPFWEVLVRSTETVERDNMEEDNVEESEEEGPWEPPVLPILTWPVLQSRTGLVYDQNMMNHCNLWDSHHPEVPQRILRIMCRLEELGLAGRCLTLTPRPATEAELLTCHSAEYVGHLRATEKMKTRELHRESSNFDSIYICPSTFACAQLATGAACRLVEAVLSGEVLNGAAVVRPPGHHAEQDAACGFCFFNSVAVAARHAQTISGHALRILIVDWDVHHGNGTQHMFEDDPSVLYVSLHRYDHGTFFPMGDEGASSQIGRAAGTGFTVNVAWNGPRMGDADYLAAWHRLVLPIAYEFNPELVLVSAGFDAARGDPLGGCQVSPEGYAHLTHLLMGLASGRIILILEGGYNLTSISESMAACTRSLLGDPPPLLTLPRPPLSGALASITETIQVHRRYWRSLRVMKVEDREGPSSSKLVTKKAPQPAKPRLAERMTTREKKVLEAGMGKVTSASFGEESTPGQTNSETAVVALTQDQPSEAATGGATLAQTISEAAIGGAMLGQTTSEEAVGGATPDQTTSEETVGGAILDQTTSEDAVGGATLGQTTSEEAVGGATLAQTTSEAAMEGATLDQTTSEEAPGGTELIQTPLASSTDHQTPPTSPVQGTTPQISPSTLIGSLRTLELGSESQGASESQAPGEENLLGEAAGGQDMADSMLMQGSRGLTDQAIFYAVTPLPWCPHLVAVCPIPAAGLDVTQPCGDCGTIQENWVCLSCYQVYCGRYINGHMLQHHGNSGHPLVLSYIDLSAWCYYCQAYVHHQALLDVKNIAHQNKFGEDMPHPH
Assay type: biochemical
Summary of the method: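 Full-length human HDAC6 (GST-purified, Sf-9 expressed) preincubated with compound 60 min at room temperature in Tris-HCl pH 7.5 buffer with MgCl2, KCl, NaCl, glutathione, Tween-20. HDAC-Glo I/II substrate-developer then added, 20 min room temperature, luminescence read. Inhibition relative to no-enzyme wells as 100%.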

Row | inhibition at 10 µM [%] | SMILES
1 | 99 | O=C1CCCN1c1cc(F)ccc1N1Cc2ccc(-c3nnc(C(F)F)o3)cc2C1=O [Example 439, 6-(5-(difluoro-methyl)-1,3,4-oxadiazol-2-yl)-2-(4-fluoro-2-(2-oxo-pyrrolidin-1-yl)phenyl) isoindolin-1-one]
2 | 97 | O=C1c2cc(-c3nnc(C(F)F)o3)cnc2CN1Cc1nccs1 [Example 440, 3-(5-(difluoro-methyl)-1,3,4-oxadiazol-2-yl)-6-(1,3-thiazol-2-ylmethyl)-6,7-dihydro-5H-pyrrolo [3,4-b]pyridin-5-one]
3 | 99 | O=C1c2cc(-c3nnc(C(F)F)o3)cnc2CN1Cc1ccccc1Br [Example 441, 6-(2-bromo-benzyl)-3-(5-(difluoro-methyl)-1,3,4-oxadiazol-2-yl)-6,7-dihydro-5H-pyrrolo [3,4-b]pyridin-5-one]
4 | 94 | Cn1ccc(N2Cc3ccc(-c4nnc(C(F)F)o4)cc3C2=O)n1 [Example 442, 6-(5-(difluoro-methyl)-1,3,4-oxadiazol-2-yl)-2-(1-methyl-1H-pyrazol-3-yl)isoindolin-1-one]
5 | 100 | N#Cc1ccc(N2Cc3ccc(-c4nnc(C(F)F)o4)cc3C2=O)c(-c2ccccc2)c1 [Example 443, 6-(6-(5-(difluoro-methyl)-1,3,4-oxadiazol-2-yl)-1-oxo-1,3-dihydro-2H-isoindol-2-yl) biphenyl-3-carbonitrile]
6 | 100 | N#Cc1ccc(N2Cc3ccc(-c4nnc(C(F)F)o4)cc3C2=O)c(-c2cnn(C(F)F)c2)c1 [Example 444, 4-(6-(5-(difluoro-methyl)-1,3,4-oxadiazol-2-yl)-1-oxo-1,3-dihydro-2H-isoindol-2-yl)-3-(1-(difluoro-methyl)-1H-pyrazol-4-yl) benzonitrile]
7 | 100 | N#Cc1ccc(N2Cc3ccc(-c4nnc(C(F)F)o4)cc3C2=O)c(-c2cccc(F)c2)c1 [Example 445, 6-(6-(5-(difluoro-methyl)-1,3,4-oxadiazol-2-yl)-1-oxo-1,3-dihydro-2H-isoindol-2-yl)-3′-fluoro-biphenyl-3-carbonitrile]
8 | 100 | Cn1cc(C2CCOCC2)c(N2Cc3ccc(-c4nnc(C(F)F)o4)cc3C2=O)n1 [Example 446, 6-(5-(difluoro-methyl)-1,3,4-oxadiazol-2-yl)-2-(1-methyl-4-(tetrahydro-2H-pyran-4-yl)-1H-pyrazol-3-yl) isoindolin-1-one]
9 | 100 | COc1cccc(-c2cn(C)nc2N2Cc3ccc(-c4nnc(C(F)F)o4)cc3C2=O)c1 [Example 447, 6-(5-(difluoro-methyl)-1,3,4-oxadiazol-2-yl)-2-(4-(3-methoxy-phenyl)-1-methyl-1H-pyrazol-3-yl) isoindolin-1-one]
10 | 100 | Cn1cc(C2=CCOCC2)c(N2Cc3ccc(-c4nnc(C(F)F)o4)cc3C2=O)n1 [Example 448, 6-(5-(difluoro-methyl)-1,3,4-oxadiazol-2-yl)-2-(4-(3,6-dihydro-2H-pyran-4-yl)-1-methyl-1H-pyrazol-3-yl) isoindolin-1-one]
11 | 100 | CC(=O)N[C@@H]1CCCC[C@H]1N1Cc2ncc(-c3nnc(C(F)F)o3)cc2C1=O [Example 449, N-((1R,2R)-2-(3-(5-(difluoro-methyl)-1,3,4-oxadiazol-2-yl)-5-oxo-5,7-dihydro-6H-pyrrolo[3,4-b]pyridin-6-yl)cyclohexyl) acetamide]
12 | 100 | O=C1c2cc(-c3nnc(C(F)F)o3)ccc2CN1c1ccc(F)cc1-n1cc(C(F)(F)F)cn1 [Example 450, 6-(5-(difluoro-methyl)-1,3,4-oxadiazol-2-yl)-2-(4-fluoro-2-(4-(trifluoro-methyl)-1H-pyrazol-1-yl)phenyl) isoindolin-1-one]
13 | 98 | O=C1c2cc(-c3nnc(C(F)F)o3)ccc2CN1c1ccc(F)cc1-n1cc(Cl)cn1 [Example 451, 2-(2-(4-chloro-1H-pyrazol-1-yl)-4-fluoro-phenyl)-6-(5-(difluoro-methyl)-1,3,4-oxadiazol-2-yl) isoindolin-1-one]
14 | 99 | O=C1c2cc(-c3nnc(C(F)F)o3)ccc2CN1c1ccc(F)cc1-n1cc(F)cn1 [Example 452, 6-(5-(difluoromethyl)-1,3,4-oxadiazol-2-yl)-2-(4-fluoro-2-(4-fluoro-1H-pyrazol-1-yl)phenyl)isoindolin-1-one]
15 | 99 | O=C1c2cc(-c3nnc(C(F)F)o3)ccc2CN1c1ccnn1-c1cccc(F)c1 [Example 453, 6-(5-(difluoro-methyl)-1,3,4-oxadiazol-2-yl)-2-(1-(3-fluoro-phenyl)-1H-pyrazol-5-yl) isoindolin-1-one]
16 | 101 | O=C1c2cc(-c3nnc(C(F)F)o3)cnc2CN1Cc1ccc(Cl)s1 [Example 454, 6-((5-chloro-2-thienyl)methyl)-3-(5-(difluoro-methyl)-1,3,4-oxadiazol-2-yl)-6,7-dihydro-5H-pyrrolo [3,4-b]pyridin-5-one]
17 | 102 | Cn1cc(-c2cc(F)cc(F)c2)c(N2Cc3ccc(-c4nnc(C(F)F)o4)cc3C2=O)n1 [Example 455, 6-(5-(difluoro-methyl)-1,3,4-oxadiazol-2-yl)-2-(4-(3,5-difluoro-phenyl)-1-methyl-1H-pyrazol-3-yl) isoindolin-1-one]
18 | 100 | CCOc1ccccc1CN1Cc2ncc(-c3nnc(C(F)F)o3)cc2C1=O [Example 456, 3-(5-(difluoro-methyl)-1,3,4-oxadiazol-2-yl)-6-(2-ethoxy-benzyl)-6,7-dihydro-5H-pyrrolo[3,4-b] pyridin-5-one]
19 | 97 | O=C1c2cc(-c3nnc(C(F)F)o3)cnc2CN1Cc1cc2ccccn2n1 [Example 457, 3-(5-(difluoro-methyl)-1,3,4-oxadiazol-2-yl)-6-(pyrazolo [1,5-a]pyridin-2-ylmethyl)-6,7-dihydro-5H-pyrrolo [3,4-b] pyridin-5-one]
20 | 100 | O=C1c2cc(-c3nnc(C(F)F)o3)cnc2CN1Cc1cnn2ccccc12 [Example 458, 3-(5-(difluoro-methyl)-1,3,4-oxadiazol-2-yl)-6-(pyrazolo [1,5-a]pyridin-3-ylmethyl)-6,7-dihydro-5H-pyrrolo [3,4-b] pyridin-5-one]
21 | 97 | Cn1cc(-c2cncc(F)c2)c(N2Cc3ccc(-c4nnc(C(F)F)o4)cc3C2=O)n1 [Example 459, 6-(5-(difluoro-methyl)-1,3,4-oxadiazol-2-yl)-2-(4-(5-fluoro-pyridin-3-yl)-1-methyl-1H-pyrazol-3-yl) isoindolin-1-one]
22 | 102 | Cn1cc(-c2ccccc2F)c(N2Cc3ccc(-c4nnc(C(F)F)o4)cc3C2=O)n1 [Example 460, 6-(5-(difluoro-methyl)-1,3,4-oxadiazol-2-yl)-2-(4-(2-fluoro-phenyl)-1-methyl-1H-pyrazol-3-yl) isoindolin-1-one]
23 | 100 | CCC(=O)N[C@@H]1CCCC[C@H]1N1Cc2ncc(-c3nnc(C(F)F)o3)cc2C1=O [Example 461, N-((1R,2R)-2-(3-(5-(difluoro-methyl)-1,3,4-oxadiazol-2-yl)-5-oxo-5,7-dihydro-6H-pyrrolo[3,4-b]pyridin-6-yl)cyclohexyl) propanamide]
24 | 100 | CCCC(=O)N[C@@H]1CCCC[C@H]1N1Cc2ncc(-c3nnc(C(F)F)o3)cc2C1=O [Example 462, N-((1R,2R)-2-(3-(5-(difluoro-methyl)-1,3,4-oxadiazol-2-yl)-5-oxo-5,7-dihydro-6H-pyrrolo[3,4-b]pyridin-6-yl)cyclohexyl) butanamide]
25 | 101 | O=C(N[C@@H]1CCCC[C@H]1N1Cc2ncc(-c3nnc(C(F)F)o3)cc2C1=O)C1CC1 [Example 463, N-((1R,2R)-2-(3-(5-(difluoro-methyl)-1,3,4-oxadiazol-2-yl)-5-oxo-5,7-dihydro-6H-pyrrolo[3,4-b]pyridin-6-yl)cyclohexyl) cyclopropane-carboxamide]
26 | 101 | O=C(N[C@@H]1CCCC[C@H]1N1Cc2ncc(-c3nnc(C(F)F)o3)cc2C1=O)C1CCC1 [Example 464, N-((1R,2R)-2-(3-(5-(difluoro-methyl)-1,3,4-oxadiazol-2-yl)-5-oxo-5,7-dihydro-6H-pyrrolo[3,4-b]pyridin-6-yl)cyclohexyl) cyclobutane-carboxamide]
